Data taken from paper PMC8083904 (ACS infectious diseases, 2020).

What was measured:
MEZ (Mtb malic enzyme) [1] = target: T1, MEZ (Mtb malic enzyme) (Mycobacterium tuberculosis, UniProt P9WK25)
MEZ (Mtb malic enzyme) [2] = target: T1, MEZ (Mtb malic enzyme); details: read-out: Km or K0.5
MEZ (Mtb malic enzyme) [3] = target: T1, MEZ (Mtb malic enzyme); remark: listed apart in the source

T1 sequence (P9WK25 whole entry): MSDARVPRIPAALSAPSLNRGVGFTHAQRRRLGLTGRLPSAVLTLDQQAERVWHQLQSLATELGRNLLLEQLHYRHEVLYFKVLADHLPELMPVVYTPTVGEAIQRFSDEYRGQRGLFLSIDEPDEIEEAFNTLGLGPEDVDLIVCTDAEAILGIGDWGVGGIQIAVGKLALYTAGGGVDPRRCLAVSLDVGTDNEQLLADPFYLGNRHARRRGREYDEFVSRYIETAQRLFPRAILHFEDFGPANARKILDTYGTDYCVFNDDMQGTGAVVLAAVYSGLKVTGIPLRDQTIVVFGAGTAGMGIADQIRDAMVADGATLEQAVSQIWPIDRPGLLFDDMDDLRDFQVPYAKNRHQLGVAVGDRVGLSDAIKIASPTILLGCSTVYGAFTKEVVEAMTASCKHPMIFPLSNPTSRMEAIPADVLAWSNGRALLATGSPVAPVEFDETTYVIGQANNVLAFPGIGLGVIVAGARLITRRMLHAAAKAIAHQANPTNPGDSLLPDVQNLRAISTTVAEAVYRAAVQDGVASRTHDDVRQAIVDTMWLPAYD

SMILES	% activity of unmodified control (activation) (MEZ (Mtb malic enzyme) [1])	also measured
O=C(O)/C=C/C(=O)O [fumarate]	361%	–
N[C@@H](CC(=O)O)C(=O)O [aspartate]	aspartate induced a smaller increase in activity, Figure 3A	–
O=C(O)C[C@H](O)C(=O)O [L-malate]	–	Km (MEZ (Mtb malic enzyme) [2]): 18.7 ± 0.5 mM
O=C(O)CCC(=O)O [succinate]	290%	–
O=C(O)CC(=O)C(=O)O [oxaloacetate]	–	% activity of control (inhibition) (MEZ (Mtb malic enzyme) [3]): 61%
